Experimental data reported in the NIST ThermoML archive (doi:10.1021/je200721d).
± gives the expanded uncertainty stated by the source.

Assay: xn = mol fraction of the nth substance listed
Settings: Liquid, Vibrating tube method

CCCCCCCCCC [decane] + CCCCCC
Settings	mass density [kg/m3]
313.18 K, 22000 kPa, x2 = 0.7524	687.87 ± 0.45
313.18 K, 23000 kPa, x2 = 0.0456	730.42 ± 0.41
313.18 K, 23000 kPa, x2 = 0.7524	688.65 ± 0.46
313.18 K, 24000 kPa, x2 = 0.0456	731.08 ± 0.41
313.18 K, 24000 kPa, x2 = 0.7524	689.4 ± 0.47
313.18 K, 25000 kPa, x2 = 0.0456	731.73 ± 0.42
313.18 K, 25000 kPa, x2 = 0.7524	690.14 ± 0.47
313.21 K, 1000 kPa, x2 = 0.4968	688.23 ± 0.26
313.21 K, 2000 kPa, x2 = 0.4968	689.24 ± 0.27
313.21 K, 3000 kPa, x2 = 0.4968	690.26 ± 0.27
313.21 K, 4000 kPa, x2 = 0.4968	691.19 ± 0.28
313.21 K, 5000 kPa, x2 = 0.4968	692.15 ± 0.29
313.21 K, 6000 kPa, x2 = 0.4968	693.12 ± 0.3
313.21 K, 7000 kPa, x2 = 0.4968	694.03 ± 0.3
313.21 K, 8000 kPa, x2 = 0.4968	694.95 ± 0.31
313.21 K, 9000 kPa, x2 = 0.4968	695.84 ± 0.32
313.21 K, 10000 kPa, x2 = 0.4968	696.74 ± 0.33
313.21 K, 10990 kPa, x2 = 0.4968	697.6 ± 0.33
313.21 K, 12000 kPa, x2 = 0.4968	698.47 ± 0.34
313.21 K, 13000 kPa, x2 = 0.4968	699.32 ± 0.35
313.21 K, 14000 kPa, x2 = 0.4968	700.16 ± 0.36
313.21 K, 15000 kPa, x2 = 0.4968	700.95 ± 0.37
313.21 K, 16000 kPa, x2 = 0.4968	701.76 ± 0.38
313.21 K, 17000 kPa, x2 = 0.4968	702.55 ± 0.38
313.21 K, 18000 kPa, x2 = 0.4968	703.34 ± 0.39
313.21 K, 19000 kPa, x2 = 0.4968	704.08 ± 0.4
313.21 K, 20000 kPa, x2 = 0.4968	704.83 ± 0.41
313.21 K, 21000 kPa, x2 = 0.4968	705.58 ± 0.42
313.21 K, 22000 kPa, x2 = 0.4968	706.34 ± 0.43
313.21 K, 23000 kPa, x2 = 0.4968	707.05 ± 0.43
313.21 K, 24000 kPa, x2 = 0.4968	707.76 ± 0.44
313.21 K, 25000 kPa, x2 = 0.4968	708.45 ± 0.45
322.99 K, 1000 kPa, x2 = 0.8991	645.29 ± 0.27
322.99 K, 2000 kPa, x2 = 0.8991	646.4 ± 0.28
322.99 K, 3000 kPa, x2 = 0.8991	647.52 ± 0.29
322.99 K, 4000 kPa, x2 = 0.8991	648.64 ± 0.3
322.99 K, 5000 kPa, x2 = 0.8991	649.64 ± 0.31
322.99 K, 6000 kPa, x2 = 0.8991	650.89 ± 0.32
322.99 K, 7000 kPa, x2 = 0.8991	652.02 ± 0.33
322.99 K, 8000 kPa, x2 = 0.8991	653.14 ± 0.34
322.99 K, 9000 kPa, x2 = 0.8991	654.27 ± 0.34
322.99 K, 10000 kPa, x2 = 0.8991	655.38 ± 0.35
322.99 K, 11000 kPa, x2 = 0.8991	656.46 ± 0.36
322.99 K, 12000 kPa, x2 = 0.8991	657.57 ± 0.37
322.99 K, 13000 kPa, x2 = 0.8991	658.64 ± 0.38
322.99 K, 14000 kPa, x2 = 0.8991	659.7 ± 0.39
322.99 K, 15000 kPa, x2 = 0.8991	660.74 ± 0.4
322.99 K, 16000 kPa, x2 = 0.8991	661.75 ± 0.41
322.99 K, 17000 kPa, x2 = 0.8991	662.76 ± 0.42
322.99 K, 18000 kPa, x2 = 0.8991	663.71 ± 0.43
322.99 K, 19000 kPa, x2 = 0.8991	664.67 ± 0.44
322.99 K, 20000 kPa, x2 = 0.8991	665.59 ± 0.45
322.99 K, 21000 kPa, x2 = 0.8991	666.49 ± 0.46
322.99 K, 22000 kPa, x2 = 0.8991	667.35 ± 0.47
322.99 K, 23000 kPa, x2 = 0.8991	668.19 ± 0.48
322.99 K, 24000 kPa, x2 = 0.8991	669.02 ± 0.49
322.99 K, 25000 kPa, x2 = 0.8991	669.89 ± 0.5
323.14 K, 1000 kPa, x2 = 0.0456	705.56 ± 0.25
323.14 K, 1000 kPa, x2 = 0.2185	697.1 ± 0.26
323.14 K, 1000 kPa, x2 = 0.4968	679.98 ± 0.26
323.14 K, 2000 kPa, x2 = 0.0456	706.52 ± 0.26
323.14 K, 2000 kPa, x2 = 0.2185	698.02 ± 0.26
323.14 K, 2000 kPa, x2 = 0.4968	681.03 ± 0.27
323.14 K, 3000 kPa, x2 = 0.0456	707.47 ± 0.27
323.14 K, 3000 kPa, x2 = 0.2185	698.97 ± 0.27
323.14 K, 3000 kPa, x2 = 0.4968	682.14 ± 0.28
323.14 K, 4000 kPa, x2 = 0.0456	708.4 ± 0.27
323.14 K, 4000 kPa, x2 = 0.2185	699.88 ± 0.28
323.14 K, 4000 kPa, x2 = 0.4968	683.21 ± 0.28
323.14 K, 5000 kPa, x2 = 0.0456	709.32 ± 0.28
323.14 K, 5000 kPa, x2 = 0.2185	700.82 ± 0.28
323.14 K, 5000 kPa, x2 = 0.4968	684.24 ± 0.29
323.14 K, 6000 kPa, x2 = 0.0456	710.22 ± 0.29
323.14 K, 6000 kPa, x2 = 0.2185	701.75 ± 0.29
323.14 K, 6000 kPa, x2 = 0.4968	685.27 ± 0.3
323.14 K, 7000 kPa, x2 = 0.0456	711.11 ± 0.29
323.14 K, 7000 kPa, x2 = 0.2185	702.67 ± 0.3
323.14 K, 7000 kPa, x2 = 0.4968	686.28 ± 0.31
323.14 K, 8000 kPa, x2 = 0.0456	711.99 ± 0.3
323.14 K, 8000 kPa, x2 = 0.2185	703.58 ± 0.3
323.14 K, 8000 kPa, x2 = 0.4968	687.29 ± 0.31
323.14 K, 9000 kPa, x2 = 0.0456	712.86 ± 0.31
323.14 K, 9000 kPa, x2 = 0.2185	704.45 ± 0.31
323.14 K, 9000 kPa, x2 = 0.4968	688.27 ± 0.32
323.14 K, 10000 kPa, x2 = 0.0456	713.72 ± 0.31
323.14 K, 10000 kPa, x2 = 0.2185	705.32 ± 0.32
323.14 K, 10000 kPa, x2 = 0.4968	689.22 ± 0.33
323.14 K, 10990 kPa, x2 = 0.0456	714.56 ± 0.32
323.14 K, 10990 kPa, x2 = 0.2185	706.19 ± 0.33
323.14 K, 10990 kPa, x2 = 0.4968	690.14 ± 0.34
323.14 K, 12000 kPa, x2 = 0.0456	715.39 ± 0.33
323.14 K, 12000 kPa, x2 = 0.2185	707.05 ± 0.33
323.14 K, 12000 kPa, x2 = 0.4968	691.07 ± 0.35
323.14 K, 13000 kPa, x2 = 0.0456	716.21 ± 0.34
